Measured values taken from patent US10597388B2, “Pyridazinone herbicides” (FMC CORPORATION, priority 2014, dated 2020).

Experiments:
Assay type in all cases: in vivo
[1] = tested on: morningglory (Ipomoea coccinea); assay: Test C greenhouse herbicide test, pre- and postemergence
How it was run: (§1)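 Two application timings: at sowing into a soil/sand blend, and on 2–18 cm seedlings in peat-vermiculite potting mix. A non-phytotoxic, surfactant-containing solvent carried the compounds. Plants were compared with controls and rated visually on 0–100 after 13–15 d.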

[2] = tested on: barnyardgrass (Echinochloa crus-galli); assay: as above
How it was run: as §1

[3] = tested on: wheat (winter wheat, Triticum aestivum); assay: as above
How it was run: as §1

[4] = tested on: soybean (Glycine max); assay: as above
How it was run: as §1

[5] = tested on: johnsongrass (Sorghum halepense); assay: as above
How it was run: as §1

[6] = tested on: corn (Zea mays); assay: as above
How it was run: as §1

[7] = tested on: pigweed (Amaranthus retroflexus); assay: as above
How it was run: as §1

[8] = tested on: lambsquarters (Chenopodium album); assay: as above
How it was run: as §1

[9] = tested on: foxtail, giant (giant foxtail, Setaria faberii); assay: as above
How it was run: as §1

[10] = tested on: blackgrass (Alopecurus myosuroides); assay: as above
How it was run: as §1

[11] = tested on: ryegrass, Italian (Italian ryegrass, Lolium multiflorum); assay: as above
How it was run: as §1

[12] = tested on: crabgrass, large (large crabgrass, Digitaria sanguinalis); assay: as above
How it was run: as §1

[13] = tested on: waterhemp (common waterhemp, Amaranthus rudis); assay: as above
How it was run: as §1

[14] = tested on: ragweed (common ragweed, Ambrosia elatior); assay: as above
How it was run: as §1

[15] = tested on: kochia (Kochia scoparia); assay: Test C greenhouse herbicide test, postemergence; settings: for Plant response rating, Kochia: Postemergence
How it was run: (§2)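 Greenhouse postemergence spray on plants 2–18 cm tall; response judged visually after 13–15 d relative to untreated controls using a 0 (none) to 100 (full control) scale.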

[16] = tested on: oat, wild (wild oat, Avena fatua); assay: Test C greenhouse herbicide test, postemergence; settings: for Plant response rating, Oat, Wild: Postemergence
How it was run: as §2

[17] = Postemergence, 125 g ai/ha, scale 0 to 100, 0 is no effect, 100 is complete control
[18] = Postemergence, 250 g ai/ha, scale 0 to 100, 0 no effect, 100 complete control, 13 to 15 d
[19] = Preemergence, 31 g ai/ha, scale 0 to 100, 0 is no effect, 100 is complete control
[20] = Preemergence, 62 g ai/ha, scale 0 to 100, 0 is no effect, 100 is complete control
[21] = Preemergence, 125 g ai/ha, scale 0 to 100, 0 is no effect, 100 is complete control
[22] = Preemergence, 250 g ai/ha, scale 0 to 100 (0 no effect, 100 complete control)
[23] = postemergence, 62 g ai/ha, scale 0 to 100, 0 no effect, 100 complete control
[24] = Postemergence, 31 g ai/ha, 0 to 100 scale (0 no effect, 100 complete control)
[25] = 125 g ai/ha, scale 0 to 100, 0 is no effect, 100 is complete control
[26] = 250 g ai/ha, scale 0 to 100, 0 no effect, 100 complete control, 13 to 15 d

CCOC(=O)Oc1c(C)nn(C)c(=O)c1-c1c(C)sc2ccc(C)cc12 [Compound 82]
Plant response rating, Morningglory [1, 17]: 100 | Plant response rating, Morningglory [1, 18]: 100 | Plant response rating, Morningglory [1, 19]: 85 | Plant response rating, Morningglory [1, 20]: 90 | Plant response rating, Morningglory [1, 21]: 95 | Morningglory plant response rating [1, 22]: 95 | Morningglory plant response rating [1, 23]: 100 | Barnyardgrass plant response rating [2, 24]: 20 | Plant response rating, Barnyardgrass [2, 17]: 25 | Plant response rating, Barnyardgrass [2, 18]: 30 | Plant response rating, Barnyardgrass [2, 19]: 10 | Plant response rating, Barnyardgrass [2, 20]: 55 | Plant response rating, Barnyardgrass [2, 21]: 70 | Barnyardgrass plant response rating [2, 22]: 90 | Barnyardgrass plant response rating [2, 23]: 25 | Plant response rating, Wheat [3, 17]: 5 | Plant response rating, Wheat [3, 18]: 5 | Plant response rating, Wheat [3, 19]: 0 | Plant response rating, Wheat [3, 20]: 0 | Plant response rating, Wheat [3, 21]: 0 | Wheat plant response rating [3, 22]: 0 | Wheat plant response rating [3, 23]: 0 | Plant response rating, Soybean [4, 17]: 5 | Plant response rating, Soybean [4, 18]: 10 | Plant response rating, Soybean [4, 19]: 0 | Plant response rating, Soybean [4, 20]: 100 | Plant response rating, Soybean [4, 21]: 0 | Soybean plant response rating [4, 22]: 0 | Soybean plant response rating [4, 23]: 10 | Plant response rating, Johnsongrass [5, 17]: 10 | Plant response rating, Johnsongrass [5, 18]: 10 | Plant response rating, Johnsongrass [5, 19]: 45 | Plant response rating, Johnsongrass [5, 20]: 65 | Plant response rating, Johnsongrass [5, 21]: 60 | Johnsongrass plant response rating [5, 22]: 40 | Johnsongrass plant response rating [5, 23]: 5 | Corn plant response rating [6, 24]: 35 | Plant response rating, Corn [6, 17]: 10 | Plant response rating, Corn [6, 18]: 5 | Plant response rating, Corn [6, 19]: 0 | Plant response rating, Corn [6, 20]: 0 | Plant response rating, Corn [6, 21]: 20 | Corn plant response rating [6, 22]: 25 | Corn plant response rating [6, 23]: 30 | Plant response rating, Pigweed [7, 17]: 90 | Plant response rating, Pigweed [7, 18]: 90 | Plant response rating, Pigweed [7, 19]: 95 | Plant response rating, Pigweed [7, 20]: 100 | Plant response rating, Pigweed [7, 21]: 100 | Pigweed plant response rating [7, 22]: 100 | Pigweed plant response rating [7, 23]: 90 | Plant response rating, Lambsquarters [8, 17]: 98 | Plant response rating, Lambsquarters [8, 18]: 100 | Plant response rating, Lambsquarters [8, 19]: 85 | Plant response rating, Lambsquarters [8, 20]: 90 | Plant response rating, Lambsquarters [8, 21]: 98 | Lambsquarters plant response rating [8, 22]: 98 | Lambsquarters plant response rating [8, 23]: 98 | Plant response rating, Foxtail, Giant [9, 17]: 60 | Plant response rating, Foxtail, Giant [9, 18]: 80 | Plant response rating, Foxtail, Giant [9, 19]: 60 | Plant response rating, Foxtail, Giant [9, 20]: 85 | Plant response rating, Foxtail, Giant [9, 21]: 90 | Foxtail, Giant plant response rating [9, 22]: 100 | Foxtail, Giant plant response rating [9, 23]: 25 | Blackgrass plant response rating [10, 24]: 10 | Plant response rating, Blackgrass [10, 17]: 35 | Plant response rating, Blackgrass [10, 18]: 40 | Plant response rating, Blackgrass [10, 19]: 50 | Plant response rating, Blackgrass [10, 20]: 60 | Plant response rating, Blackgrass [10, 21]: 65 | Blackgrass plant response rating [10, 22]: 80 | Blackgrass plant response rating [10, 23]: 35 | Plant response rating, Ryegrass, Italian [11, 17]: 85 | Plant response rating, Ryegrass, Italian [11, 18]: 85 | Plant response rating, Ryegrass, Italian [11, 19]: 80 | Plant response rating, Ryegrass, Italian [11, 20]: 85 | Plant response rating, Ryegrass, Italian [11, 21]: 85 | Ryegrass, Italian plant response rating [11, 22]: 90 | Ryegrass, Italian plant response rating [11, 23]: 85 | Plant response rating, Crabgrass, Large [12, 17]: 20 | Plant response rating, Crabgrass, Large [12, 18]: 30 | Plant response rating, Crabgrass, Large [12, 19]: 25 | Plant response rating, Crabgrass, Large [12, 20]: 20 | Plant response rating, Crabgrass, Large [12, 21]: 70 | Crabgrass, Large plant response rating [12, 22]: 80 | Crabgrass, Large plant response rating [12, 23]: 20 | Plant response rating, Waterhemp [13, 17]: 90 | Plant response rating, Waterhemp [13, 18]: 98 | Plant response rating, Waterhemp [13, 19]: 100 | Plant response rating, Waterhemp [13, 20]: 100 | Plant response rating, Waterhemp [13, 21]: 100 | Waterhemp plant response rating [13, 22]: 100 | Waterhemp plant response rating [13, 23]: 98 | Plant response rating, Ragweed [14, 17]: 95 | Plant response rating, Ragweed [14, 18]: 95 | Plant response rating, Ragweed [14, 19]: 85 | Plant response rating, Ragweed [14, 20]: 90 | Plant response rating, Ragweed [14, 21]: 90 | Ragweed plant response rating [14, 22]: 95 | Ragweed plant response rating [14, 23]: 98 | Plant response rating, Kochia [15, 25]: 90 | Plant response rating, Kochia [15, 26]: 90 | Kochia plant response rating [15, 23]: 90 | Plant response rating, Oat, Wild [16, 25]: 90 | Plant response rating, Oat, Wild [16, 26]: 90 | Oat, Wild plant response rating [16, 23]: 85
